Measured values taken from publication PMC5218480 (PLoS ONE, 2017).

Tested on: MV-4-11 cells
Assay: Gene expression microarray analysis (Affymetrix PrimeView) and GSEA
Type: cell-based, human
Design: RFU PODN (11730768_x_at) / Fold change /veh PODN (11730768_x_at) / RFU LINC00158 (11744669_a_at) / Fold change /veh LINC00158 (11744669_a_at) / RFU DUSP10 (11751237_a_at) / Fold change /veh DUSP10 (11751237_a_at) / RFU ID3 (11757404_x_at) / Fold change /veh ID3 (11757404_x_at) / RFU PLEKHG5 (11737974_s_at) / Fold change /veh PLEKHG5 (11737974_s_at) / RFU LRRC4B (11730491_at) / Fold change /veh LRRC4B (11730491_at) / RFU GIMAP4 (11747438_a_at) / Fold change /veh GIMAP4 (11747438_a_at) / RFU KRT8 (11758183_x_at) / Fold change /veh KRT8 (11758183_x_at) / RFU CNN1 (11734310_a_at) / Fold change /veh CNN1 (11734310_a_at) / RFU VPS37D (11726825_at) / Fold change /veh VPS37D (11726825_at) / RFU C10orf10 (11716522_x_at) / Fold change /veh C10orf10 (11716522_x_at) / RFU KIR2DL2 /// KIR2DL4 /// KIR2DL5A /// KIR2DL5B /// KIR2DS1 /// KIR2DS2 /// KIR2DS3 /// KIR2DS4 /// KIR3DL3 /// KIR3DL3 /// KIR3DS1 (11738374_at) / Fold change /veh KIR2DL2 /// KIR2DL4 /// KIR2DL5A /// KIR2DL5B /// KIR2DS1 /// KIR2DS2 /// KIR2DS3 /// KIR2DS4 /// KIR3DL3 /// KIR3DL3 /// KIR3DS1 (11738374_at) / RFU C1QL1 (11718748_at) / Fold change /veh C1QL1 (11718748_at) / RFU TMPRSS4 (11747572_a_at) / Fold change /veh TMPRSS4 (11747572_a_at) / RFU HAMP (11756126_x_at) / Fold change /veh HAMP (11756126_x_at) / RFU RNFT2 (11725882_a_at) / Fold change /veh RNFT2 (11725882_a_at) / RFU NR4A2 (11747474_a_at) / Fold change /veh NR4A2 (11747474_a_at) / RFU ABCC12 (11746883_a_at) / Fold change /veh ABCC12 (11746883_a_at) / RFU TMEM136 (11760407_x_at) / Fold change /veh TMEM136 (11760407_x_at) / RFU CLDN22 /// WWC2 (11732394_at) / Fold change /veh CLDN22 /// WWC2 (11732394_at) / RFU HLA-DPB1 (11760878_x_at) / Fold change /veh HLA-DPB1 (11760878_x_at) / RFU SPINT1 (11716480_a_at) / Fold change /veh SPINT1 (11716480_a_at) / RFU GAP43 (11754022_s_at) / Fold change /veh GAP43 (11754022_s_at) / RFU A4GNT (11735810_at) / Fold change /veh A4GNT (11735810_at) / RFU PRB3 (11715151_x_at) / Fold change /veh PRB3 (11715151_x_at) / RFU TUBB4B (11761932_at) / Fold change /veh TUBB4B (11761932_at) / RFU CAPN14 (11732068_a_at) / Fold change /veh CAPN14 (11732068_a_at) / RFU TMCC2 (11721928_a_at) / Fold change /veh TMCC2 (11721928_a_at) / RFU IRGQ (11745062_a_at) / Fold change /veh IRGQ (11745062_a_at) / RFU FAM174B (11720279_a_at) / Fold change /veh FAM174B (11720279_a_at) / RFU TMPRSS4 (11748680_a_at) / Fold change /veh TMPRSS4 (11748680_a_at) / RFU FAM212B (11763350_a_at) / Fold change /veh FAM212B (11763350_a_at) / RFU PLEKHG5 (11743358_a_at) / Fold change /veh PLEKHG5 (11743358_a_at) / RFU ZSCAN30 (11745921_a_at) / Fold change /veh ZSCAN30 (11745921_a_at) / RFU CMKLR1 (11741424_a_at) / Fold change /veh CMKLR1 (11741424_a_at) / RFU LOC101060620 /// MAPK8IP1 (11723275_at) / Fold change /veh LOC101060620 /// MAPK8IP1 (11723275_at) / RFU SPTSSB (11747773_x_at) / Fold change /veh SPTSSB (11747773_x_at) / RFU PRSS12 (11739890_at) / Fold change /veh PRSS12 (11739890_at) / RFU BIN1 (11741810_x_at) / Fold change /veh BIN1 (11741810_x_at) / RFU WNT11 (11732464_a_at) / Fold change /veh WNT11 (11732464_a_at) / RFU C10orf10 (11716521_a_at) / Fold change /veh C10orf10 (11716521_a_at) / RFU C5orf56 (11738089_at) / Fold change /veh C5orf56 (11738089_at) / RFU CYB561 (11721691_x_at) / Fold change /veh CYB561 (11721691_x_at) / RFU ANKRD19P (11752326_a_at) / Fold change /veh ANKRD19P (11752326_a_at) / RFU OR2T12 /// OR2T33 /// OR2T8 (11738714_s_at) / Fold change /veh OR2T12 /// OR2T33 /// OR2T8 (11738714_s_at) / RFU VCAN (11748164_a_at) / Fold change /veh VCAN (11748164_a_at) / RFU JSRP1 (11732532_at) / Fold change /veh JSRP1 (11732532_at) / RFU KRTAP10-11 (11738290_x_at) / Fold change /veh KRTAP10-11 (11738290_x_at) / RFU MYO3A (11730013_a_at) / Fold change /veh MYO3A (11730013_a_at) / RFU EBF3 (11725865_a_at) / Fold change /veh EBF3 (11725865_a_at) / RFU CAMK2N1 (11719241_x_at) / Fold change /veh CAMK2N1 (11719241_x_at) / RFU C5orf56 (11738088_a_at) / Fold change /veh C5orf56 (11738088_a_at) / RFU OLFML3 (11715873_a_at) / Fold change /veh OLFML3 (11715873_a_at) / RFU LOC100653217 /// NTM (11731650_a_at) / Fold change /veh LOC100653217 /// NTM (11731650_a_at) / RFU MAPK11 (11762145_a_at) / Fold change /veh MAPK11 (11762145_a_at) / RFU FIZ1 (11724087_x_at) / Fold change /veh FIZ1 (11724087_x_at) / RFU OASL (11726364_x_at) / Fold change /veh OASL (11726364_x_at) / RFU SOX15 (11748057_x_at) / Fold change /veh SOX15 (11748057_x_at) / RFU CD79A (11719716_a_at) / Fold change /veh CD79A (11719716_a_at) / RFU HIST1H1D (11736915_at) / Fold change /veh HIST1H1D (11736915_at) / RFU CASKIN2 (11723855_a_at) / Fold change /veh CASKIN2 (11723855_a_at) / RFU LOC730098 (11760151_x_at) / Fold change /veh LOC730098 (11760151_x_at) / RFU OR4N2 (11742367_at) / Fold change /veh OR4N2 (11742367_at) / RFU PRRT2 (11749266_a_at) / Fold change /veh PRRT2 (11749266_a_at) / RFU SNX32 (11753110_a_at) / Fold change /veh SNX32 (11753110_a_at) / RFU CDHR5 (11726645_a_at) / Fold change /veh CDHR5 (11726645_a_at) / RFU RCAN1 (11760418_a_at) / Fold change /veh RCAN1 (11760418_a_at) / RFU FAM167A (11723789_a_at) / Fold change /veh FAM167A (11723789_a_at) / RFU FAM26E (11764081_at) / Fold change /veh FAM26E (11764081_at) / RFU ISYNA1 (11749810_s_at) / Fold change /veh ISYNA1 (11749810_s_at) / RFU ACY1 (11761880_at) / Fold change /veh ACY1 (11761880_at) / RFU 11764098_at / Fold change /veh 11764098_at / RFU SAMD14 (11745864_x_at) / Fold change /veh SAMD14 (11745864_x_at) / RFU NPB (11741838_a_at) / Fold change /veh NPB (11741838_a_at) / RFU TMPRSS6 (11731388_a_at) / Fold change /veh TMPRSS6 (11731388_a_at) / RFU KRTAP10-2 (11738614_at) / Fold change /veh KRTAP10-2 (11738614_at) / RFU ARHGAP8 /// PRR5-ARHGAP8 (11727945_x_at) / Fold change /veh ARHGAP8 /// PRR5-ARHGAP8 (11727945_x_at) / RFU KRTAP5-7 /// NADSYN1 (11734609_at) / Fold change /veh KRTAP5-7 /// NADSYN1 (11734609_at) / RFU RASL12 (11751679_a_at) / Fold change /veh RASL12 (11751679_a_at) / RFU CDKN2B (11736163_a_at) / Fold change /veh CDKN2B (11736163_a_at) / RFU PRF1 (11729649_at) / Fold change /veh PRF1 (11729649_at) / RFU, ZNF638 /// ZNF638-IT1 / Fold change vs veh, ZNF638 /// ZNF638-IT1 / RFU, PANK3 / Fold change vs veh, PANK3 / RFU, SH3YL1 / Fold change vs veh, SH3YL1 / RFU, ZEB2 / Fold change vs veh, ZEB2 / RFU, NRIP1 / Fold change vs veh, NRIP1 / RFU, PTTG1IP / Fold change vs veh, PTTG1IP / RFU, CAPN2 / Fold change vs veh, CAPN2 / RFU, MED14 / Fold change vs veh, MED14 / RFU, SNORA58 / Fold change vs veh, SNORA58 / RFU, C1orf63 / Fold change vs veh, C1orf63 / RFU, LRRFIP1 / Fold change vs veh, LRRFIP1 / RFU, NDUFAF7 / Fold change vs veh, NDUFAF7 / RFU, SLC12A2 / Fold change vs veh, SLC12A2 / RFU, IBTK / Fold change vs veh, IBTK / RFU, ESF1 / Fold change vs veh, ESF1 / Fold change vs veh, TMEM50B / RFU, TAOK1 / Fold change vs veh, TAOK1 / RFU, ACBD3 / Fold change vs veh, ACBD3 / RFU, TMA16 / Fold change vs veh, TMA16 / RFU, RWDD3 / Fold change vs veh, RWDD3 / RFU, BCAT1 / Fold change vs veh, BCAT1 / RFU, EDEM3 / Fold change vs veh, EDEM3 / RFU, TMEM33 / Fold change vs veh, TMEM33 / RFU, WDR75 / Fold change vs veh, WDR75 / RFU, AHCTF1 / Fold change vs veh, AHCTF1 / RFU, TFRC / Fold change vs veh, TFRC / RFU, ZDHHC17 / Fold change vs veh, ZDHHC17 / RFU, NOM1 / Fold change vs veh, NOM1 / RFU, ARL8B / Fold change vs veh, ARL8B / RFU, ZBTB11 / Fold change vs veh, ZBTB11 / RFU, TAMM41 / Fold change vs veh, TAMM41 / RFU, KIAA1704 /// LOC100996395 / Fold change vs veh, KIAA1704 /// LOC100996395 / RFU, ING1 / Fold change vs veh, ING1 / RFU, TRMT61B / Fold change vs veh, TRMT61B / RFU, FUBP3 / Fold change vs veh, FUBP3 / RFU, TP53 / Fold change vs veh, TP53 / RFU, TNKS2 / Fold change vs veh, TNKS2 / RFU, ZFP14 / Fold change vs veh, ZFP14 / RFU, ACTR2 / Fold change vs veh, ACTR2 / RFU, PPP3R1 / Fold change vs veh, PPP3R1 / RFU, PIK3R1 / Fold change vs veh, PIK3R1 / RFU, HNRNPA1 / Fold change vs veh, HNRNPA1 / RFU, RNF170 / Fold change vs veh, RNF170 / RFU, ZNF28 / Fold change vs veh, ZNF28 / RFU, RNGTT / Fold change vs veh, RNGTT / RFU, OGT / Fold change vs veh, OGT / RFU, BRD1 / Fold change vs veh, BRD1 / RFU, MARS / Fold change vs veh, MARS / RFU, ZNF655 / Fold change vs veh, ZNF655 / RFU, FAHD1 / Fold change vs veh, FAHD1 / RFU, BDP1 / Fold change vs veh, BDP1 / RFU, LRRCC1 / Fold change vs veh, LRRCC1 / RFU, ARID1A / Fold change vs veh, ARID1A / RFU, ZNF146 / Fold change vs veh, ZNF146 / RFU, ZNF330 / Fold change vs veh, ZNF330 / RFU, GPN3 / Fold change vs veh, GPN3 / RFU, C9orf123 / Fold change vs veh, C9orf123 / RFU, N4BP2L2 / Fold change vs veh, N4BP2L2 / RFU, ARFIP1 / Fold change vs veh, ARFIP1 / RFU, FAM179B / Fold change vs veh, FAM179B / RFU, BCL10 / Fold change vs veh, BCL10 / RFU, UHRF1BP1L / Fold change vs veh, UHRF1BP1L / RFU, BET1 / Fold change vs veh, BET1 / RFU, CNOT2 / Fold change vs veh, CNOT2 / RFU, ZNF268 / Fold change vs veh, ZNF268 / Fold change vs veh, ZNF507 / RFU, DGCR2 / Fold change vs veh, DGCR2 / RFU, WDSUB1 / Fold change vs veh, WDSUB1 / Fold change vs veh, HSP90B1 /// MIR3652 / RFU, ADSS / Fold change vs veh, ADSS / RFU, GK / Fold change vs veh, GK / RFU, ZNF148 / Fold change vs veh, ZNF148 / RFU, TAF9 / Fold change vs veh, TAF9 / RFU, SLC1A5 / Fold change vs veh, SLC1A5 / RFU, SLMO2 / Fold change vs veh, SLMO2 / RFU, ABCC4 / Fold change vs veh, ABCC4 / RFU, LOC101060439 /// RAP1B / Fold change vs veh, LOC101060439 /// RAP1B / RFU, RFX7 / Fold change vs veh, RFX7 / RFU, GTPBP10 / Fold change vs veh, GTPBP10 / RFU, CNEP1R1 / Fold change vs veh, CNEP1R1 / RFU, BIVM-ERCC5 /// ERCC5 / Fold change vs veh, BIVM-ERCC5 /// ERCC5 / RFU, ILF3 / Fold change vs veh, ILF3 / RFU 11762660_at / Fold change /veh 11762660_at / RFU VCAN (11757783_s_at) / Fold change /veh VCAN (11757783_s_at) / RFU DDX43 (11728927_at) / Fold change /veh DDX43 (11728927_at) / RFU KRT8 (11758188_x_at) / Fold change /veh KRT8 (11758188_x_at) / RFU NKD1 (11759106_at) / Fold change /veh NKD1 (11759106_at) / RFU SRD5A1 (11742802_a_at) / Fold change /veh SRD5A1 (11742802_a_at) / RFU TPSAB1 /// TPSB2 (11721975_s_at) / Fold change /veh TPSAB1 /// TPSB2 (11721975_s_at) / RFU GSTM3 (11746129_a_at) / Fold change /veh GSTM3 (11746129_a_at) / RFU IL23R (11737362_x_at) / Fold change /veh IL23R (11737362_x_at) / RFU TMEM51 (11727254_a_at) / Fold change /veh TMEM51 (11727254_a_at) / RFU PIWIL2 (11732686_x_at) / Fold change /veh PIWIL2 (11732686_x_at) / RFU ORM1 (11744905_x_at) / Fold change /veh ORM1 (11744905_x_at) / RFU CCDC152 (11743942_at) / Fold change /veh CCDC152 (11743942_at) / RFU ECM1 (11717891_a_at) / Fold change /veh ECM1 (11717891_a_at) / RFU IL23R (11748794_a_at) / Fold change /veh IL23R (11748794_a_at) / RFU TNFAIP8L3 (11732012_x_at) / Fold change /veh TNFAIP8L3 (11732012_x_at) / RFU MBOAT4 (11741988_at) / Fold change /veh MBOAT4 (11741988_at) / RFU 11764193_at / Fold change /veh 11764193_at / RFU TMEM53 (11763286_at) / Fold change /veh TMEM53 (11763286_at) / RFU MAGEB2 (11727129_at) / Fold change /veh MAGEB2 (11727129_at) / RFU TMEM200A (11744735_a_at) / Fold change /veh TMEM200A (11744735_a_at) / RFU CCDC152 (11751479_a_at) / Fold change /veh CCDC152 (11751479_a_at) / RFU FAM211A (11726209_a_at) / Fold change /veh FAM211A (11726209_a_at) / RFU RGS16 (11746705_a_at) / Fold change /veh RGS16 (11746705_a_at) / RFU VCAN (11755009_s_at) / Fold change /veh VCAN (11755009_s_at) / RFU RHOB (11743442_s_at) / Fold change /veh RHOB (11743442_s_at) / RFU RGS16 (11720943_a_at) / Fold change /veh RGS16 (11720943_a_at) / RFU RGS16 (11720944_at) / Fold change /veh RGS16 (11720944_at) / RFU, VPS4B / Fold change vs veh, VPS4B / RFU, CREB1 / Fold change vs veh, CREB1 / RFU, DNAJC13 / Fold change vs veh, DNAJC13 / RFU, GNAQ / Fold change vs veh, GNAQ / RFU, CDK5R1 / Fold change vs veh, CDK5R1 / RFU, ZRANB3 / Fold change vs veh, ZRANB3 / RFU, CUL4A / Fold change vs veh, CUL4A / RFU, CCNY / Fold change vs veh, CCNY / RFU, UFL1 / Fold change vs veh, UFL1 / RFU, COG3 / Fold change vs veh, COG3 / RFU, DIAPH2 / Fold change vs veh, DIAPH2 / RFU, SKA2 / Fold change vs veh, SKA2 / RFU, AFF3 / Fold change vs veh, AFF3 / RFU, LMF1 / Fold change vs veh, LMF1 / RFU, IPO11 / Fold change vs veh, IPO11 / RFU, DFFB / Fold change vs veh, DFFB / RFU, FOXP1 / Fold change vs veh, FOXP1 / RFU, CARD8 / Fold change vs veh, CARD8 / RFU, STRN3 / Fold change vs veh, STRN3 / RFU, ADK / Fold change vs veh, ADK / RFU, RASSF2 / Fold change vs veh, RASSF2 / RFU, WIPF1 / Fold change vs veh, WIPF1 / RFU, LARP1B / Fold change vs veh, LARP1B / RFU, RASA1 / Fold change vs veh, RASA1 / RFU, RB1 / Fold change vs veh, RB1 / RFU, PPFIA1 / Fold change vs veh, PPFIA1 / RFU, MAT2A / Fold change vs veh, MAT2A / RFU, CCT5 / Fold change vs veh, CCT5 / RFU, WDR92 / Fold change vs veh, WDR92 / RFU, CUX1 / Fold change vs veh, CUX1 / RFU, TTC7A / Fold change vs veh, TTC7A / RFU, TMEM135 / Fold change vs veh, TMEM135 / RFU, DEPTOR / Fold change vs veh, DEPTOR / RFU, CPM / Fold change vs veh, CPM / RFU, DNAJB6 / Fold change vs veh, DNAJB6 / RFU, CACNA2D3 / Fold change vs veh, CACNA2D3 / RFU, DTX4 / Fold change vs veh, DTX4 / RFU, TFCP2 / Fold change vs veh, TFCP2 / RFU, GMCL1 /// GMCL1P1 / Fold change vs veh, GMCL1 /// GMCL1P1 / RFU, AEBP2 / Fold change vs veh, AEBP2 / RFU, SNHG1 /// SNORD22 /// SNORD25 /// SNORD26 /// SNORD27 /// SNORD28 /// SNORD29 /// SNORD31 / Fold change vs veh, SNHG1 /// SNORD22 /// SNORD25 /// SNORD26 /// SNORD27 /// SNORD28 /// SNORD29 /// SNORD31 / Fold change (Aza/veh), C12orf56 (ProbeSet 11735607_a_at) / Fold change (ACY-1035/veh), C12orf56 (ProbeSet 11735607_a_at) / Fold change (Aza/veh), FGFR1OP (ProbeSet 11751329_s_at) / Fold change (ACY-1035/veh), FGFR1OP (ProbeSet 11751329_s_at) / Fold change (Aza/veh), VPS36 (ProbeSet 11739960_a_at) / Fold change (ACY-1035/veh), VPS36 (ProbeSet 11739960_a_at) / RFU SYPL1 (11715823_x_at) / Fold change /veh SYPL1 (11715823_x_at) / RFU IGFBP7 (11715501_s_at) / Fold change /veh IGFBP7 (11715501_s_at) / RFU REEP3 (11722064_at) / Fold change /veh REEP3 (11722064_at) / RFU IGLL1 (11728026_x_at) / Fold change /veh IGLL1 (11728026_x_at): dose or concentration left out as unconfirmed
Conditions: MV-4-11 cells, 48 hours

Nc1ncn([C@@H]2O[C@H](CO)[C@@H](O)[C@H]2O)c(=O)n1 [azacitidine]
RFU TMCC2 (11721928_a_at): 12.72 RFU
